In paper PMC11742723, “The clinical-stage drug BTZ-043 accumulates in murine tuberculosis lesions and efficiently acts against Mycobacterium tuberculosis” (Nature Communications, 2025):
Converted amounts (≈) assume the structure as drawn. Read-outs that look alike come from different tables or passages of the source.

How the values were obtained:
[1] = BALB/c, mouse, in vivo
Caco-2 cell monolayers [2] = tested on: Caco-2 cell monolayers
H37Rv = conditions: in vitro, against H37Rv; cited from earlier work
Mtb [3] = tested on: Mtb; design: method as in PMID 28821804; conditions: NOS2-deficient mice, 50 mg/kg/day, cited from earlier work
Mtb [4] = tested on: Mtb; design: method as in PMID 37791784; conditions: C3HeB/FeJ substrain, 2 months of therapy; cited from earlier work
Mtb [5] = tested on: Mtb; design: method as in PMID 37791784, PMID 34370580; conditions: in vitro, ref PMID 37791784, PMID 34370580; cited from earlier work
Mtb [6] = tested on: Mtb; design: method as in PMID 39793592; conditions: phase IIa EBA, 250 mg - 1750 mg once daily for 14 days; cited from earlier work
in vivo = conditions: IL-13tg, mouse, oral, 250 mg/kg
[7] = In vitro permeability assay in Caco-2 monolayers; conditions: human, Caco-2
Caco-2 cell monolayers [8] = experiment: In vitro permeability assay in Caco-2 monolayers; conditions: direction AB, time 60 min
[9] = Impact of γ-irradiation on BTZ-043 in lung cryosections of treated mice (LC-MS/MS, MALDI imaging)

## C[C@H]1COC2(CCN(c3nc(=O)c4cc(C(F)(F)F)cc([N+](=O)[O-])c4s3)CC2)O1 [BTZ-043]
[1]
  Cmax at which BTZ-043total exposure reaches saturation: around 8000 ng/mL
  Tmax: 30 to 60 min
[1]; po, 2.5 mg/kg/day
  AUCinf: 666 ng·h/mL
  Cmax: 520 ng/mL
  Tmax: 30 min
[1]; po, 5 mg/kg/day
  AUCinf: 1,360 h·ng/mL
  Cmax: 1,050 ng/mL
  Tmax: 30 min
[1]; po, 50 mg/kg/day
  AUCinf: 14,700 h·ng/mL
  Cmax: 8070 ng/mL
  Tmax: 30 min
Caco-2 cell monolayers [2]
  permeability classification: permeable drug
  transport mechanism indicated by efflux ratios: passive diffusion is dominant over active transport mechanisms
BTZ-043 treated mice, most pronounced at the highest dose for 8 weeks
  finding at necropsy: enlarged stomachs
Dose escalation study, BALB/c
  health status of drug treated mice at high treatment doses: did not observe any indication that could point to adverse side effects
H37Rv
  MIC: 1 ng/mL (≈ 2.32 nM)
Mtb [3]; 4 weeks of treatment
  bactericidal activity: profound bactericidal activity
Mtb [3]; two weeks
  effect on bacterial burden: hardly reduced the bacterial burden
Mtb [4]
  effect on pulmonary bacterial load: significant reduction of the pulmonary bacterial load
Mtb [5]
  caseum activity assay result: negative
Mtb [6]
  bacterial killing with increasing dose in TB patients: no obvious further increase in bacterial killing above daily doses of 1000 mg
In vivo; both, lung (cryosections)
  concentration at 0.5 h: 1120 ± 190 ng/g
  concentration at 2 h: 910 ± 150 ng/g
  concentration at 8 h: 270 ng/mL
In vivo; female, lung cryosection
  concentration at 4 h: 780 ng/g
  concentration at 8 h: 260 ng/g
In vivo; female, lung cryosections
  concentration at 2 h: 1090 ng/g
In vivo; male, lung cryosection
  concentration at 2 h: 950 ng/g
In vivo; male, lung cryosections
  concentration at 0.5 h: 1280 ng/g
  concentration at 4 h: 1380 ng/g
  concentration at 8 h: 730 ng/g
[7]
  Papp A→B at 120 min: 9.44 to 11.3 ×10⁻⁶ cm/s
  Papp at 120 min, 4 µg/mL: 11.3 ×10⁻⁶ cm/s
  efflux ratio at 120 min, 1 µg/mL: 0.73
  efflux ratio at 120 min, 4 µg/mL: 1.14
Caco-2 cell monolayers [8]; BTZ-043 4 μg mL^-1, replicates 1-3
  Concentration: 124.355 ng/mL
Caco-2 cell monolayers [8]; BTZ-043 (4 µg mL^-1), compartment baso
  Calculated Amount: 124.355
[9]; BALB/c, mouse, 250 mg/kg/day, ng/mg lung cryosection, measurement 2, no gamma irradiation, 1h after BTZ administration, naïve BALB/c 250 mg/kg/day 5 days, single cryosection
  concentration at 1 h: 1400 ng/g
[9]; gamma irradiation, 1h after BTZ administration, naïve BALB/c 250 mg/kg/day 5 days, single cryosection
  ng/mg lung cryosection, Mean: 13.81 ng/mg lung cryosection
[9]; lung tissue cryosections, 5.85 kGy
  impact of γ-irradiation on the concentration and distribution of BTZ-043: does not impact
